24 compounds from patent publication US20190284192A1, “NITROGENOUS MACROCYCLIC COMPOUND, PREPARATION METHOD THEREFOR, PHARMACEUTICAL COMPOSITION AND APPLICATION THEREOF” (LUOXIN PHARMACEUTICAL (SHANGHAI) CO., LTD., priority 2016, published 2019) can be followed below.

Assay [1] deals with MV-4-11 cells. The assay can be described thus: Inhibitory effect on MV-4-11 cells (CellTiter-Glo). It counts as cell-based. The following applies: Homo sapiens, MV4-11; 72 hours, CellTiter-Glo; read-out: MV-4-11. (In general: ATP-based viability assays read luminescence as a measure of living cells.)
Assay [2] deals with T1, BRD4 (BD2) (Homo sapiens, UniProt O60885).
T1 construct: Each member comprises two tandem bromodomains (BD1 and BD2) for recognizing the acetylated lysine residues
As to the kind of experiment: BRD4 (BD2) bromodomain binding, HTRF. The following applies: 2 h incubation at r.t. For orientation: Time-resolved FRET reads energy transfer from a long-lived donor to a nearby acceptor.

Assay [3] deals with T2, BRD4 (BD1) (Homo sapiens, UniProt O60885).
T2 construct: Each member comprises two tandem bromodomains (BD1 and BD2) for recognizing the acetylated lysine residues
The assay can be described thus: BRD4 (BD1) bromodomain binding, HTRF. The following applies: 2 h incubation at r.t.

pIC50: −log10 of the molar value.

For `CCNC(=O)C[C@@H]1N=C(c2ccc(Cl)cc2)c2cc(F)ccc2-c2cn(C)c(=O)cc21` [Compound 4034, (S)-2-(7-(4-chlorophenyl)-9-fluoro-2-methyl-3-oxo-3,5-dihydro-2H-benzo[c]pyrido[3,4-e]azepin-5-yl)N-ethyl acetamide], the pIC50 was 7.82 in assay [1], 9.00 in assay [2] and 8.40 in assay [3].
Regarding `CCS(=O)(=O)Cc1cnc2c(c1)-c1cn(C)c(=O)cc1CN=C2c1ccc(F)cc1` [Compound 4022, 10-((ethylsulfonyl)methyl)-7-(4-fluorophenyl)-2-methyl-2,5-dihydro-3H-dipyrido[2,3-c: 3′,4′-e]azepin-3-ketone], the pIC50 in assay [1] was 6.72; in assay [2], 8.15; in assay [3], 7.92.
In the case of `CCS(=O)(=O)Cc1ccc2c(c1)-c1cn(C)c(=O)cc1[C@H](CC(=O)O)N=C2c1ccc(F)cc1` [Compound 4067, (S)-2-(10-((ethylsulfonyl)methyl)-7-(4-flurophenyl)-2-methyl-3-oxo-3,5-dihydro-2H-benzo[c]pyrido[3,4-e]azepin-5-yl)acetic acid], the pIC50 is less than 5.70 in assay [1], 9.00 in assay [2] and 8.22 in assay [3].
Take `CCS(=O)(=O)Cc1ccc2c(c1)-c1cn(C)c(=O)cc1N(C)N=C2c1ccc(F)cc1Cl` [Compound 4093, 7-(2-chloro-4-flurophenyl)-10-((ethylsulfonyl)methyl)-2,5-dimethyl-2,5-dihydro-3H-benzo[e]pyrido[4,3-c][1,2]diazepin-3-ketone]: the values for the pIC50 in assay [1], in assay [2] and in assay [3] were 7.77, 9.15 and 8.30, respectively.
For `CNS(=O)(=O)C(C)c1ccc2c(c1)-c1cn(C)c(=O)cc1[C@H](C)N=C2c1ccc(F)cc1` (stereo partly drawn) [Compound 4091, 1-((S)-7-(4-flurophenyl)-2,5-dimethyl-3-oxo-3,5-dihydro-2H-benzo[c]pyrido[3,4-e]azepin-10-yl)-N-methylethane-1-sulfamide], the pIC50 was 8.52 in assay [1], 9.15 in assay [2] and 9.00 in assay [3].
`CCS(=O)(=O)Nc1cc2c(cc1Cl)C(c1ccc(F)cc1)=N[C@@H](C1CC1)c1cc(=O)n(C)cc1-2` [Compound 4077, (S)—N-(9-chloro-5-cyclopropyl-7-(4-flurophenyl)-2-methyl-3-oxo-3,5-dihydro-2H-benzo[c]pyrido[3,4-e]azepin-10-yl)ethylsulfonamide]: the pIC50 in assay [1] was 9.40; in assay [2], 9.40; in assay [3], 9.00.
On to `CC[C@@H]1N=C(c2ccc(F)cc2)c2cc(Cl)c(NS(=O)(=O)CC)cc2-c2cn(C)c(=O)cc21` [Compound 4065, (S)—N-(9-chloro-5-ethyl-7-(4-flurophenyl)-2-methyl-3-oxo-3,5-dihydro-2H-benzo[c]pyrido[3,4-e]azepin-10-yl)ethylsulfonamide], for which the pIC50 in assay [1] was 9.00; in assay [2], 9.00; in assay [3], 8.70.
Consider `CCS(=O)(=O)Nc1cc2c(cc1F)C(c1ccc(F)cc1)=N[C@@H](C)c1cc(=O)n(C)cc1-2` [Compound 4055, (S)—N-(9-fluoro-7-(4-flurophenyl)-2,5-dimethyl-3-oxo-3,5-dihydro-2H-benzo[c]pyrido[3,4-e]azepin-10-yl)ethylsulfonamide], for which the pIC50 in assay [1], in assay [2] and in assay [3] was 9.00 throughout.
For the compound `CCS(=O)(=O)Cc1ccc2c(c1)-c1cn(C)c(=O)cc1CN=C2c1ccc(F)c(OC)c1` [Compound 4089, 10-((ethylsulfonyl)methyl)-7-(4-fluoro-3-methoxylphenyl)-2-methyl-2,5-dihydro-3H-benzo[c]pyrido[3,4-e]azepin-3-ketone], the pIC50 in assay [1] is 6.97; in assay [2], 8.40; in assay [3], 8.10.
`COc1ccc2c(c1)C(c1ccc(F)cc1)=NCc1cc(=O)n(C)cc1-2` [Compound 4020, 7-(4-fluorophenyl)-9-methoxy-2-methyl-2,5-dihydro-3H-benzo[c]pyrido[3,4-e]azepin-3-one]: the pIC50 in assay [1] was 6.87; in assay [2], 8.00; in assay [3], 7.96.
The like results for `CCS(=O)(=O)Cc1ccc2c(c1)-c1cn(C)c(=O)cc1[C@H](C1CC1)N=C2c1ccc(F)cc1` [Compound 4042, (S)-5-cyclopropyl-10-((ethylsulfonyl)methyl)-7-(4-flurophenyl)-2-methyl-2,5-dihydro-3H-benzo[c]pyrido[3,4-e]azepin-3-ketone] were, in that order, 8.15, 9.00 and 9.00.
In the case of `CCS(=O)(=O)Cc1ccc2c(c1)-c1cn(C)c(=O)cc1CN=C2c1ccc(Cl)cc1F` [Compound 4013, 7-(4-chloro-2-fluorophenyl)-10-((ethylsulfone)methyl)-2-methyl-2,5-dihydro-3H-benzo[c]pyrido[3,4-e]azepin-3-ketone], the pIC50 in assay [1] is 7.12; in assay [2], 8.70; in assay [3] it was 8.15.
`CCS(=O)(=O)Cc1ccc2c(c1)-c1cn(C)c(=O)cc1[C@H](CCO)N=C2c1ccc(F)cc1` [Compound 4088, (S)-10-((ethylsulfonyl)methyl)-7-(4-flurophenyl)-5-(2-hydroxyethyl)-2-methyl-2,5-dihydro-3H-benzo[c]pyrido[3,4-e]azepin-3-ketone]: the pIC50 in assay [1] was 7.59; in assay [2], 9.00; in assay [3] it was 8.52.
As for `CCS(=O)(=O)Nc1cc2c(cc1F)C(c1ccc(F)cc1)=NC(C)c1cc(=O)n(C)nc1-2` (stereo not drawn) [Compound 4095, N-(9-Fluoro-7-(4-flurophenyl)-2,5-dimethyl-3-oxo-3,5-dihydropyridin-2H-benzo[c]pyridazino[3,4-e]azepin-10-yl)ethylsulfonamide], the pIC50 was 7.85 in assay [1], 8.70 in assay [2] and 8.30 in assay [3].
Taken in the same sequence, the figures for `CCS(=O)(=O)Cc1ccc2c(c1)-c1cn(C)c(=O)cc1[C@H](C)N=C2c1ccc(F)c(OC)c1` [Compound 4054, (S)-10-((ethylsulfonyl)methyl)-7-(4-fluoro-3-methoxylphenyl)-2,5-dimethyl-2,5-dihydro-3H-benzo[c]pyrido[3,4-e]azepin-3-ketone] were 8.05, 9.00 and 8.70.
Taken in the same sequence, the figures for `CCNC(=O)C[C@@H]1N=C(c2ccc(Cl)cc2)c2ncccc2-c2cn(C)c(=O)cc21` [Compound 4030, (S)-2-(7-(4-chlorophenyl)-2-methyl-3-oxo-3,5-dihydro-2H-dipyrido[2,3-c:3′,4′-e]azepin-5-yl)-N-ethyl acetamide] were 7.77, 8.70 and 8.22.
Taken in the same sequence, the figures for `CCS(=O)(=O)Cc1cc2c(cn1)C(c1ccc(Cl)cc1)=NCc1cc(=O)n(C)cc1-2` [Compound 4027, 7-(4-chlorophenyl)-10-((ethylsulfonyl)methyl)-2-methyl-2,5-dihydro-3H-dipyrido[3,4-c:3′,4′-e]azepin-3-ketone] were 6.89, 8.22 and 7.92.
Take `Cn1cc2c(cc1=O)[C@H](CC(N)=O)N=C(c1ccc(F)cc1)c1ccc(CS(C)(=O)=O)cc1-2` [Compound 4014, (S)-2-(7-(4-fluorophenyl)-2-methyl-10-(methylsulfonylmethyl)-3-oxo-3,5-dihydro-2H-benzo[c]pyrido[3,4-e]azepin-5-yl)acetamide]: the pIC50 was 6.53 in assay [1], 9.00 in assay [2] and 8.70 in assay [3].
With `C[C@@H]1N=C(c2ccc(F)cc2)c2ccc(CS(=O)(=O)C(F)(F)F)cc2-c2cn(C)c(=O)cc21` [Compound 4043, (S)-7-(4-flurophenyl)-2,5-dimethyl-10-((trifluoromethylsulphone)methyl)-2,5-dihydro-3H-benzo[c]pyrido[3,4-e]azepin-3-ketone], the pIC50 was 8.10 in assay [1], 8.70 in assay [2] and 9.00 in assay [3].
Regarding `CCS(=O)(=O)Cc1ccc2c(c1)-c1cn(C)c(=O)cc1[C@H](C)N=C2c1ccc(O)cc1` [Compound 4061, (S)-10-((ethylsulfonyl)methyl)-7-(4-hydroxylphenyl)-2,5-dimethyl-2,5-dihydro-3H-benzo[c]pyrido[3,4-e]azepin-3-ketone], the pIC50 in assay [1] was 7.96; in assay [2] it was 9.00; in assay [3] it was 8.70.
The like results for `CCNS(=O)(=O)c1ccc2c(c1)-c1cn(C)c(=O)cc1[C@H](C)N=C2c1ccc(F)cc1` [Compound 4052, (S)—N-ethyl-7-(4-flurophenyl)-2,5-dimethyl-3-oxo-3,5-dihydro-2H-benzo[c]pyrido[3,4-e]azepin-10-sulfamide] were, in that order, 7.26, 8.70 and 8.22.
The like results for `CCS(=O)(=O)Nc1cc2c(cc1Cl)C(c1ccc(Cl)cc1)=N[C@@H](C)c1cc(=O)n(C)cc1-2` [Compound 4068, (S)—N-(9-chloro-7-(4-chlorophenyl)-2,5-dimethyl-3-oxo-3,5-dihydro-2H-benzo[c]pyrido[3,4-e]azepin-10-yl)ethylsulfonamide] were, in that order, 9.00, 9.30 and 9.00.
Taken in the same sequence, the figures for `C[C@@H]1N=C(c2ccc(F)cc2)c2cc(F)c(NS(C)(=O)=O)cc2-c2cn(C)c(=O)cc21` [Compound 4074, (S)—N-(9-fluoro-7-(4-flurophenyl)-2,5-dimethyl-3-oxo-3,5-dihydro-2H-benzo[c]pyrido[3,4-e]azepin-10-yl) methylsulfamide] were 8.70, 9.00 and 9.00.
Take `C[C@@H]1N=C(c2ccc(F)cc2)c2cc(Cl)c(NS(C)(=O)=O)cc2-c2cn(C)c(=O)cc21` [Compound 4079, (S)—N-(9-chloro-7-(4-flurophenyl)-2,5-dimethyl-3-oxo-3,5-dihydro-2H-benzo[c]pyrido[3,4-e]azepin-10-yl)methylsulfamide]: the pIC50 is 9.00 in assay [1], 9.00 in assay [2] and 8.52 in assay [3].
